How the values were obtained:
[1] = system: dog; conditions: Chronic toxicity, beagle, Oral, Capsule, dose end: 52 week, group: systemic
[2] = system: rat; conditions: Prenatal developmental toxicity study, sprague dawley, Oral, Gavage/Intubation, dose end: 17 GD
[3] = system: rabbit; conditions: Prenatal developmental toxicity study, new zealand white, Oral, Gavage/Intubation, dose end: 18 GD
[4] = system: dog; conditions: Subchronic oral toxicity in nonrodent, beagle, Capsule, dose end: 90 day, group: systemic
[5] = system: rat; conditions: Combined chronic toxicity/carcinogenicity, fischer, Oral, Feed, dose end: 104 week, group: systemic
[6] = system: mouse; conditions: Subchronic oral toxicity in rodents, cd1, Feed, dose end: 90 day, group: systemic
[7] = system: mouse; conditions: Carcinogenicity, cd1, Oral, Feed, dose end: 80 week, group: systemic
[8] = system: rat; conditions: Subchronic oral toxicity in rodents, fischer, [Not Specified], dose end: 90 day, group: systemic
[9] = system: rat; conditions: Subchronic oral toxicity in rodents, fischer, Feed, dose end: 90 day, group: systemic
[10] = system: mouse; conditions: Carcinogenicity, b6c3f1, Oral, Feed, dose end: 24 month, group: systemic
[11] = system: mouse; conditions: Chronic toxicity, b6c3f1, Oral, Feed, dose end: 1 year, group: systemic
[12] = system: dog; conditions: Chronic toxicity; beagle; Oral; Capsule; dose end: 52 week; group: systemic; systemic / clinical chemistry / thyroxine (t4) / thyroxine (t4), total
[13] = system: rat; conditions: Combined chronic toxicity/carcinogenicity, fischer, Oral, Feed, dose end: 2 year, group: systemic
[14] = system: mouse; conditions: Subchronic oral toxicity in rodents, b6c3f1, Feed, dose end: 90 day, group: systemic
[15] = system: rabbit; conditions: Prenatal developmental toxicity study, dutch, Oral, Gavage/Intubation, dose end: 18 GD, group: maternal
[16] = system: mouse; conditions: Carcinogenicity, b6c3f1, Oral, Feed, dose end: 2 year, group: systemic
[17] = system: rat; conditions: Prenatal developmental toxicity study, sprague dawley, Oral, Gavage/Intubation, dose end: 17 GD; remark: listed apart in the source
[18] = system: mouse; conditions: Subchronic oral toxicity in rodents, b6c3f1, Feed, dose end: 90 day, group: systemic, systemic / clinical chemistry / glucose / glucose + systemic / in life observation / body weight / body weight gain + systemic / clinical …
[19] = system: rat; conditions: Multigenerational reproductive toxicity study, fischer, Oral, Feed, dose end: 2 generation
[20] = system: mouse; conditions: Carcinogenicity; cd1; Oral; Feed; dose end: 80 week; group: systemic; systemic / pathology microscopic / liver / adenoma + systemic / in life observation / body weight / body weight gain + systemic / in life …
[21] = system: dog; conditions: Subchronic oral toxicity in nonrodent, beagle, Feed, dose end: 90 day, group: systemic, systemic / hematology / erythrocyte (rbc) count differential / erythrocyte (rbc) + systemic / hematology / hematocrit (hct) / hematocrit (…
[22] = system: rat; conditions: Subchronic oral toxicity in rodents, sprague dawley, Feed, dose end: 90 day, group: systemic, systemic / in life observation / body weight / body weight + systemic / in life observation / body weight / body weight gain + systemic / in…
[23] = system: rat; conditions: Combined chronic toxicity/carcinogenicity, other, Oral, Feed, dose end: 24 month, group: systemic
[24] = system: dog; conditions: Chronic toxicity; beagle; Oral; Feed; dose end: 52 week; group: systemic; systemic / organ weight / liver / relative to body weight + systemic / pathology microscopic / liver / vacuolization + systemic / pathology …
[25] = systemic / pathology gross / gallbladder / discolored + systemic / pathology microscopic / liver / hemosiderin laden macrophages
[26] = group: developmental, developmental / developmental malformation / bone / misshapen + developmental / developmental malformation / bone / supernumerary + …
[27] = group: maternal, systemic / in life observation / clinical signs / general pallor + systemic / in life observation / clinical signs / piloerection + systemic…
[28] = group: developmental, developmental / developmental malformation / bone / full supernumerary
[29] = group: maternal, reproductive / reproductive performance / resorptions / resorptions + systemic / in life observation / body weight / body weight gain + …
[30] = systemic / in life observation / body weight / body weight gain + systemic / in life observation / food consumption / food efficiency
[31] = systemic / in life observation / body weight / body weight gain + systemic / in life observation / food consumption / food efficiency + …
[32] = systemic / urinalysis / appearance and color / appearance and color + systemic / pathology microscopic / pancreas / proliferation
[33] = systemic / clinical chemistry / albumin / albumin + systemic / hematology / eosinophils / eosinophils + systemic / hematology / neutrophils…
[34] = systemic / hematology / eosinophils / eosinophils + systemic / hematology / neutrophils / neutrophils + systemic / organ weight / liver / …
[35] = systemic / clinical chemistry / alanine aminotransferase (alt/sgpt) / alanine aminotransferase (alt/sgpt) + systemic / clinical chemistry / …
[36] = systemic / hematology / blood clotting / blood clotting - activated partial thromboplastin time + systemic / hematology / blood clotting / …
[37] = systemic / organ weight / kidney / absolute + systemic / organ weight / kidney / relative to body weight + systemic / pathology microscopic…
[38] = systemic / urinalysis / sediment microscopic / crystalluria + systemic / urinalysis / ph / ph
[39] = systemic / in life observation / body weight / body weight gain
[40] = systemic / in life observation / body weight / body weight gain + systemic / organ weight / uterus / absolute + systemic / organ weight / …
[41] = systemic / organ weight / uterus / absolute
[42] = systemic / pathology microscopic / kidney / pyelonephritis + systemic / pathology microscopic / urinary bladder / inflammation + systemic / …
[43] = systemic / hematology / erythrocyte (rbc) count differential / erythrocyte (rbc) + systemic / hematology / hematocrit (hct) / hematocrit (…
[44] = systemic / pathology microscopic / mammary gland / fibroadenoma
[45] = systemic / in life observation / body weight / body weight + systemic / organ weight / spleen / absolute
[46] = systemic / in life observation / food consumption / food consumption + reproductive / offspring survival early / litter size / litter size…
[47] = systemic / in life observation / food consumption / food consumption + systemic / in life observation / body weight / body weight gain
[48] = group: developmental, developmental / developmental malformation / bone / incomplete ossification + systemic / in life observation / body weight / fetal weight
[49] = group: developmental, developmental / developmental malformation / bone / incomplete ossification + systemic / in life observation / body weight / fetal weight + …
[50] = group: maternal, reproductive / reproductive performance / preimplantation loss / preimplantation loss + systemic / in life observation / body weight / body …
[51] = group: offspring, systemic / in life observation / body weight / offspring (pup) weight
[52] = group: parental, systemic / organ weight / kidney / absolute + systemic / organ weight / kidney / relative to body weight + systemic / pathology microscopic…
[53] = systemic / in life observation / body weight / body weight gain + systemic / in life observation / body weight / body weight + systemic / …

CCCCCCCCCCCCC1=C(OC(C)=O)C(=O)c2ccccc2C1=O [Acequinocyl]
LOAEL ([1]; systemic / hematology / platelet / platelet + systemic / hematology / reticulocyte / reticulocyte): 20 mg/kg/day
NOAEL ([1]; systemic / hematology / platelet / platelet + systemic / hematology / reticulocyte / reticulocyte + systemic / clinical chemistry / albumin…): 5 mg/kg/day
LEL [1, 25]: 5 mg/kg/day
NEL [1, 25]: < 5 mg/kg/day
LEL [2, 26]: 750 mg/kg/day
LOAEL [2, 26]: 750 mg/kg/day
NEL [2, 26]: 500 mg/kg/day
NOAEL [2, 26]: 500 mg/kg/day
LEL [2, 27]: 500 mg/kg/day
LOAEL [2, 27]: 500 mg/kg/day
NEL [2, 27]: 150 mg/kg/day
NOAEL [2, 27]: 150 mg/kg/day
LEL [3, 28]: 120 mg/kg/day
LOAEL [3, 28]: 120 mg/kg/day
NEL [3, 28]: 60 mg/kg/day
NOAEL [3, 28]: 60 mg/kg/day
LEL [3, 29]: 120 mg/kg/day
LOAEL [3, 29]: 120 mg/kg/day
NEL [3, 29]: 60 mg/kg/day
NOAEL [3, 29]: 60 mg/kg/day
LOAEL [4, 30]: 40 mg/kg/day
NOAEL [4, 30]: < 40 mg/kg/day
LEL [4, 31]: 40 mg/kg/day
NEL [4, 31]: < 40 mg/kg/day
LOAEL ([5]; systemic / pathology gross / eye / enlarged): 9.02 mg/kg/day
NOAEL ([5]; systemic / pathology gross / eye / enlarged + systemic / in life observation / body weight / body weight + systemic / in life observation / …): 2.25 mg/kg/day
LEL [5, 32]: 2.92 mg/kg/day
NEL [5, 32]: < 2.92 mg/kg/day
LOAEL [6, 33]: 81 mg/kg/day
NOAEL [6, 33]: 16 mg/kg/day
LEL [6, 34]: 16 mg/kg/day
NEL [6, 34]: < 16 mg/kg/day
LEL [7, 35]: 2.7 mg/kg/day
NEL [7, 35]: < 2.7 mg/kg/day
NOAEL [7, 35]: 7 mg/kg/day
LOAEL ([7]; systemic / pathology microscopic / liver / fatty change + systemic / pathology microscopic / liver / vacuolization): 20.3 mg/kg/day
LEL ([8]; systemic / clinical chemistry / gamma glutamyl transpeptides (gtp) / gamma glutamyl transpeptides (gtp) + systemic / urinalysis / appearance…): 30.4 mg/kg/day
LOAEL [8, 36]: 120 mg/kg/day
NEL [8, 36]: 7.6 mg/kg/day
NOAEL [8, 36]: 30.4 mg/kg/day

CCCN(CCC)c1c([N+](=O)[O-])cc(S(N)(=O)=O)cc1[N+](=O)[O-] [Oryzalin]
LOAEL [9, 37]: 45.9 mg/kg/day
NOAEL [9, 37]: 4.56 mg/kg/day
LEL [9, 38]: 4.56 mg/kg/day
NEL [9, 38]: < 4.56 mg/kg/day
LOAEL [10, 39]: 521 mg/kg/day
NEL [10, 40]: 71 mg/kg/day
NOAEL [10, 40]: 193 mg/kg/day
LEL [10, 41]: 193 mg/kg/day
LEL ([11]; systemic / clinical chemistry / creatinine / creatinine + systemic / clinical chemistry / urea nitrogen / urea nitrogen): 193 mg/kg/day
NEL ([11]; systemic / clinical chemistry / creatinine / creatinine + systemic / clinical chemistry / urea nitrogen / urea nitrogen + systemic / …): 71 mg/kg/day
LOAEL [11, 42]: > 521 mg/kg/day
NOAEL [11, 42]: ≥ 521 mg/kg/day
LEL [12]: 1.5 mg/kg/day
LOAEL [12]: 15 mg/kg/day
NEL [12]: < 1.5 mg/kg/day
NOAEL [12]: 5 mg/kg/day
LOAEL [13, 43]: 42.9 mg/kg/day
NOAEL [13, 43]: 13.8 mg/kg/day
LEL [13, 44]: 13.8 mg/kg/day
NEL [13, 44]: < 13.8 mg/kg/day
LOAEL ([14]; systemic / in life observation / body weight / body weight): 1140 mg/kg/day
LEL [14, 45]: 1140 mg/kg/day
NEL [14, 45]: 521 mg/kg/day
NOAEL [14, 45]: 521 mg/kg/day
LEL [15, 46]: 55 mg/kg/day
LOAEL [15, 46]: 55 mg/kg/day
NEL [15, 47]: 25 mg/kg/day
NOAEL [15, 47]: 25 mg/kg/day
LOAEL [16, 39]: 287 mg/kg/day
NOAEL [16, 39]: 104 mg/kg/day
LEL [16, 41]: 112 mg/kg/day
NEL ([16]; systemic / organ weight / uterus / absolute + systemic / clinical chemistry / glucose / glucose + systemic / hematology / hematocrit (hct…): 42.2 mg/kg/day
LEL [17, 48]: 225 mg/kg/day
LOAEL [17, 48]: 225 mg/kg/day
NEL [17, 49]: 50 mg/kg/day
NOAEL [17, 49]: 50 mg/kg/day
LEL [17, 50]: 225 mg/kg/day
LOAEL [17, 50]: 225 mg/kg/day
NEL [17, 50]: 50 mg/kg/day
NOAEL [17, 50]: 50 mg/kg/day
LEL [18]: 1430 mg/kg/day
LOAEL [18]: > 1430 mg/kg/day
NEL [18]: < 1430 mg/kg/day
NOAEL [18]: ≥ 1430 mg/kg/day
LEL [19, 51]: 179 mg/kg/day
LOAEL [19, 51]: 179 mg/kg/day
NEL [19, 51]: 58.7 mg/kg/day
NOAEL [19, 51]: 58.7 mg/kg/day
LOAEL [19, 52]: 19.4 mg/kg/day
NOAEL [19, 52]: < 19.4 mg/kg/day

COC(=O)c1ccccc1S(=O)(=O)NC(=O)Nc1nc(OC(F)F)cc(OC(F)F)n1 [Primisulfuron-methyl]
LEL [20]: 408 mg/kg/day
LOAEL [20]: 408 mg/kg/day
NEL [20]: 40.2 mg/kg/day
NOAEL [20]: 40.2 mg/kg/day
LEL [21]: 250 mg/kg/day
LOAEL [21]: 250 mg/kg/day
NEL [21]: 25 mg/kg/day
NOAEL [21]: 25 mg/kg/day
LEL [22]: 150 mg/kg/day
LOAEL [22]: 150 mg/kg/day
NEL [22]: 15 mg/kg/day
NOAEL [22]: 15 mg/kg/day
LEL [23, 39]: 127 mg/kg/day
LOAEL [23, 39]: 127 mg/kg/day
NEL [23, 53]: 12.4 mg/kg/day
NOAEL [23, 53]: 12.4 mg/kg/day
LEL [24]: 125 mg/kg/day
LOAEL [24]: 125 mg/kg/day
NEL [24]: 25 mg/kg/day
NOAEL [24]: 25 mg/kg/day
